Data on two molecules can be found in patent US7037645B2, “Methods for identification of CDS8+ suppressor molecules” (priority 2000, dated 2006).

The subject of the experiment is CXCR4 dependent pseudotyped virus (NL4-3). As to the kind of experiment: Single cycle HIV infection assay, pseudotyped luciferase reporter virus, time of addition. Conditions: for inhibition of pseudotyped virus expression: all time points of addition, 0.2 μM; for activity at 0.2 µM: read-out: viral infection level, % of control levels.

Structures are written as SMILES. Like-named read-outs stand apart in the source and are kept apart here.

On to `Cc1c(O)cccc1C(=O)N[C@@H](CSc1ccccc1)[C@H](O)CN1C[C@H]2CCCC[C@H]2C[C@H]1C(=O)NC(C)(C)C` [nelfinavir], for which the “inhibition of pseudotyped virus expression” value was “ineffectual”. Also, under “listed as protease inhibitor”, the “inhibition of pseudotyped virus expression” value is “does not, therefore, inhibit”.

For the molecule `Cc1ccnc2c1NC(=O)c1cccnc1N2C1CC1` [nevirapine], the activity at 0.2 µM reads like this: (Human immunodeficiency virus 1, NL43, 10 h) 67%; (Human immunodeficiency virus 1, NL43, 14 h) 85%. Moreover, the “time post virus exposure within which addition suppresses pseudotyped virus replication” value (time of addition, DP178 20 μg/ml, mAb#19 20 μg/ml, nevirapine 0.2 μM, Tat inhibitor 50 μM) is on record as “approximately 10 hours”.
